Experimental data reported in ChEMBL document CHEMBL4699523, “Predicting the Human Hepatic Clearance of Acidic and Zwitterionic Drugs” (J Med Chem, 2020).

Columns and labels:
[1] = cynomolgus monkey, in vivo, iv, 1 mg/kg
[2] = human, in vivo, iv
Description: Hepatic clearance in human administered through iv dosing

[3] = in vivo; details: cynomolgus monkey, blood and plasma, iv
Description: Ratio of drug level in cynomolgus monkey blood to plasma administered through iv dosing by LC-MS/MS analysis

[4] = physchem
[5] = in vitro; details: dog, MDCK, pH 7.4
Description: Apparent permeability in dog MDCKII-LE cells at pH 7.4

[6] = physchem; details: buffer, pH 7.4
[7] = in vitro; details: human, cryopreserved hepatocytes
[8] = in vitro; details: cynomolgus monkey, plasma
Description: Fraction unbound in cynomolgus monkey plasma

[9] = clinical; details: human, blood and plasma, iv
Description: Ratio of drug level in human blood to plasma administered through iv dosing by LC-MS/MS analysis

[10] = in vitro; details: human, plasma
Description: Fraction unbound in human plasma

[11] = physchem; remark: listed apart in the source
[12] = in vitro; details: rat, plasma
Description: Fraction unbound in rat plasma

[13] = rat, in vivo, iv, 1 mg/kg
[14] = in vivo; details: Wistar Hannover, rat, blood and plasma, iv
Description: Ratio of drug level in Wistar Hannover rat blood to plasma administered through iv dosing by LC-MS/MS analysis

Compound	CLH [1]	CLH [2]	blood plasma ratio [3]	pKa at 0.3 h [4]	Papp [5]	logD [6]	CLint scaled at 2 h, 1 µM [7]	fraction unbound [8]	blood plasma ratio [9]	fraction unbound [10]	pKa at 0.3 h [11]	fraction unbound [12]	CLH [13]	blood plasma ratio [14]
CN(C)C(=O)CCS[C@H](SCCC(=O)O)c1cccc(/C=C/c2ccc3ccc(Cl)cc3n2)c1	10.1 mL/min/kg	0.91 mL/min/kg	0.581	4.4	8.5 ×10⁻⁶ cm/s	1.5	61 mL/min/kg	0.00116	0.655	0.00142	3.8	–	–	–
CC(C)(C)OC(=O)N[C@H]1CCCCC/C=C\[C@@H]2C[C@@]2(C(=O)NS(=O)(=O)C2CC2)NC(=O)[C@@H]2C[C@@H](OC(=O)N3Cc4cccc(F)c4C3)CN2C1=O [DANOPREVIR]	26.3 mL/min/kg	10.8 mL/min/kg	0.73	–	2.5 ×10⁻⁶ cm/s	–	–	0.085	0.73	0.072	–	–	–	–
CCCCCN(CCCOC)C(=O)[C@@H](CCC(=O)O)NC(=O)c1ccc(Cl)c(Cl)c1 [DEXLOXIGLUMIDE]	1.4 mL/min/kg	3.3 mL/min/kg	0.596	4.2	4.6 ×10⁻⁶ cm/s	1.5	26 mL/min/kg	0.00771	0.563	0.00969	–	–	–	–
CC(C)n1c(/C=C/C(O)CC(O)CC(=O)O)c(-c2ccc(F)cc2)c2ccccc21 (centres undefined) [FLUVASTATIN]	–	–	–	4.4	11 ×10⁻⁶ cm/s	1.4	–	–	–	0.00922	–	0.009	–	–
O=C(O)Cc1ccccc1Nc1c(Cl)cccc1Cl [DICLOFENAC]	10.8 mL/min/kg	4.1 mL/min/kg	–	–	–	–	176 mL/min/kg	0.0047	–	0.00376	–	0.00598	17.5 mL/min/kg	–
CC(C)(O)c1ccccc1CC[C@@H](SCC1(CC(=O)O)CC1)c1cccc(/C=C/c2ccc3ccc(Cl)cc3n2)c1 [MONTELUKAST]	1.3 mL/min/kg	0.57 mL/min/kg	–	–	6 ×10⁻⁶ cm/s	–	–	0.004	–	0.004	2.3	–	–	–
CC(C)Cc1ccc(C(C)C(=O)O)cc1 (centres undefined) [IBUPROFEN]	–	–	–	–	33 ×10⁻⁶ cm/s	1.1	–	–	–	–	–	–	–	–
O=C(c1ccccc1)c1ccc2n1CCC2C(=O)O (centres undefined) [KETOROLAC]	1.2 mL/min/kg	0.19 mL/min/kg	0.687	–	15 ×10⁻⁶ cm/s	-0.6	3.1 mL/min/kg	0.0148	0.792	0.0264	–	0.0216	1.3 mL/min/kg	0.55
CCCCC1=NC2(CCCC2)C(=O)N1Cc1ccc(-c2ccccc2-c2nnn[nH]2)cc1 [IRBESARTAN]	12.1 mL/min/kg	2.1 mL/min/kg	0.55	3.5	8.6 ×10⁻⁶ cm/s	1.3	–	0.0126	0.603	0.0155	4.6	–	–	–
CCN1CC(n2nccc2-c2cc(Cl)ccc2Oc2ccc(S(=O)(=O)Nc3cscn3)cc2C#N)C1 [PF-05150122]	–	3.2 mL/min/kg	–	–	–	1.1	–	–	–	–	–	–	271 mL/min/kg	–
CCCCC(=O)N(Cc1ccc(-c2ccccc2-c2nnn[nH]2)cc1)[C@H](C(=O)O)C(C)C	8.4 mL/min/kg	0.35 mL/min/kg	–	–	0.32 ×10⁻⁶ cm/s	–	1.6 mL/min/kg	0.0145	–	0.00415	–	0.00302	5.1 mL/min/kg	–
COc1ccc(Cl)cc1C(=O)NCCc1ccc(S(=O)(=O)NC(=O)NC2CCCCC2)cc1 [GLYBURIDE]	5.8 mL/min/kg	1.2 mL/min/kg	–	–	14 ×10⁻⁶ cm/s	–	69 mL/min/kg	0.00179	–	0.00217	–	0.0013	1.2 mL/min/kg	–
CC(C)(C)NC(=O)[C@H]1CC[C@H]2[C@@H]3CC=C4C=C(C(=O)O)CC[C@]4(C)[C@H]3CC[C@]12C [EPRISTERIDE]	1.5 mL/min/kg	0.33 mL/min/kg	0.55	4.6	20 ×10⁻⁶ cm/s	3.4	23 mL/min/kg	0.00917	0.55	0.0138	–	–	–	–
CCO[C@@H](Cc1ccc(OCCc2ccc(OS(C)(=O)=O)cc2)cc1)C(=O)O [TESAGLITAZAR]	0.135 mL/min/kg	0.03 mL/min/kg	0.687	3.4	–	-0.1	4.7 mL/min/kg	0.00151	0.699	0.00273	–	–	–	–
O=S(=O)(Nc1nncs1)c1cc(Cl)c(Oc2ccc(C(F)(F)F)cc2-c2ccnnc2)cc1F [PF-05186462]	–	1.3 mL/min/kg	–	4.1	0.8 ×10⁻⁶ cm/s	0.8	–	–	–	–	–	–	–	–
O=C(O)c1cccc(Cc2cc(Cl)ccc2OCc2ccc(Cl)cc2F)n1	19.5 mL/min/kg	2 mL/min/kg	0.561	5.3	12 ×10⁻⁶ cm/s	–	180 mL/min/kg	0.00288	0.654	0.0024	–	–	–	–
CCOc1cc(CC(=O)N[C@@H](CC(C)C)c2ccccc2N2CCCCC2)ccc1C(=O)O [REPAGLINIDE]	10.7 mL/min/kg	7.4 mL/min/kg	0.679	4.4	19 ×10⁻⁶ cm/s	2.3	98 mL/min/kg	0.0124	0.851	0.0124	6	–	–	–
COc1ccc2c(c1)C(=O)N(CCc1ccc(S(=O)(=O)NC(=O)NC3CCCCC3)cc1)C(=O)C2(C)C [GLIQUIDONE]	3.5 mL/min/kg	0.96 mL/min/kg	0.62	–	5.7 ×10⁻⁶ cm/s	–	–	0.0015	0.62	0.0035	–	–	–	–
Nc1[nH]ncc1-c1cc(Cl)ccc1Oc1cc(F)c(S(=O)(=O)Nc2cscn2)cc1Cl [PF-05089771]	1.8 mL/min/kg	0.59 mL/min/kg	–	6	–	2.3	40 mL/min/kg	0.00164	–	–	2.9	0.0133	6 mL/min/kg	–
O=C(O)c1ccc(NC(=O)[C@H](CC2CCCC2)n2cnc(C(F)(F)F)c2)nc1 [PF-04991532]	–	–	–	–	–	0.7	–	–	–	–	–	–	–	–
CCCCc1nc(C)c(CC(=S)N(C)C)c(=O)n1Cc1ccc(-c2ccccc2-c2nnn[nH]2)cc1	23 mL/min/kg	9.6 mL/min/kg	0.588	4.3	1.2 ×10⁻⁶ cm/s	0.9	17 mL/min/kg	0.0177	0.726	0.0288	2.7	–	–	–
COCc1c(C(C)C)nc(C(C)C)c(/C=C/[C@@H](O)C[C@@H](O)CC(=O)O)c1-c1ccc(F)cc1 [CERIVASTATIN]	19.7 mL/min/kg	2.7 mL/min/kg	–	4.7	–	–	43 mL/min/kg	0.0153	–	0.0176	5.6	0.0179	8.7 mL/min/kg	–
